One compound from US12077502B2, “Formulations of T-type calcium channel modulators and methods of use thereof” (PRAXIS PRECISION MEDICINES, INC., priority 2019, dated 2024) can be followed below.

This data set is described as follows: Safety and tolerability in the essential tremor clinical study. The format is in vivo, human. The settings on record: 20 mg then 40 mg once a day, 14 days (formulation 5), emerging data.

Consider `CC(C)(C)NC(=O)CN1CCC(CNC(=O)c2cc(F)cc(Cl)c2)CC1` [compound of formula (I)], for which the tolerability entry is recorded as “well tolerated”.
